Measurements taken from the METLIN SMRT retention time set (Domingo-Almenara et al. 2019).

Assay: gradient 5% acetonitrile 3 min, to 50% in 2 min, to 85% in 15 min, held 3 min, 100 µL/min
Conditions: column: Zorbax Extend-C18 2.1 x 50 mm; eluents: water / acetonitrile, 0.1% formic acid
Outline: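 The mobile phases were water and acetonitrile, each with 0.1% formic acid, pumped at 100 μL/min through a Zorbax Extend-C18 column (2.1 × 50 mm, 1.8 μm). Pure standards were injected as mixtures of ~100 molecules and detected by a quadrupole time-of-flight mass spectrometer in positive and negative ionization mode. Retention time came from computationally picked adduct peaks, each inspected by hand.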

Compound | RP-LC retention time
Cc1ccc(N2CCC(NC(=O)NCc3ccc(F)cc3)C2=O)cc1C (configuration not stated) | 874 s
Cc1ccc(C)c(C(=O)N2CCC(COc3ccc(C(=O)NC(C)C)cc3)CC2)c1 | 912 s
CCOC(=O)c1c(C)oc2nc(C)nc(NC3CCCc4ccccc43)c12 (configuration not stated) | 1130 s
CCc1nnc2cc(N3CCN(C(=O)c4ccc(Cl)cc4)CC3)cnn12 | 561 s
CCOc1ccc(CNC(=O)C2CCCN2S(=O)(=O)c2cc3c(cc2Cl)NC(=O)CO3)cc1 (configuration not stated) | 760 s
Cc1ccc(-c2cc3n(n2)CCCN(C(=O)c2ccoc2)C3)cc1 | 810 s
O=C1NC2(CCN(C(=O)c3c(F)cccc3F)CC2)N=C1c1cccc(F)c1 | 815 s
CCN1C(=O)CCc2c(C)nc(-c3ccc(OC)cc3)nc21 | 901 s
O=C(Cn1ncccc1=O)Nc1nccs1 | 554 s
CCN(Cc1ccccc1)Cc1nc(-c2ccc(N3CCOCC3)nc2)no1 | 772 s
COc1cccc(NC(=O)N2CCC3(CC2)N=C(c2ccc(Cl)cc2)C(=O)N3)c1 | 870 s
Cc1cccc(-n2cc(C(=O)OCc3ccccn3)c3ccccc3c2=O)c1 | 932 s
CCc1ccc(NC(=O)Cn2c(=O)c3cc(C)nn3c3ncccc32)cc1 | 786 s
CCOC(=O)N1CCN(C(=O)Cc2c(C)nn(-c3nc(-c4ccc(F)cc4)cs3)c2C)CC1 | 1010 s
CCOc1ccc(-n2c(N3CCSC3)nc3cc(C(=O)OC)ccc3c2=O)cc1 | 1120 s
COc1ccc(NC(=O)NCCc2cn(C)c3ncccc23)cc1OC | 612 s
O=C(Nc1nnc(SCC(=O)N2CCCc3ccccc32)s1)c1cccs1 | 827 s
CCCN1N=C(C(=O)N2CCOCC2)S(=O)(=O)c2cc(Cl)ccc21 | 813 s
COCc1noc([C@@H]2CC(F)(F)CN2C(=O)c2conc2C)n1 | 679 s

Compound | RP-LC retention time
Cc1sc(NC(=O)Cc2csc(-c3ccccc3)n2)nc1-c1ccccc1 | 1160 s
COc1ccc(Cc2cnc(NC(=O)C3Cc4ccccc4C(=O)O3)s2)cc1 (configuration not stated) | 819 s
CCn1cc(-c2nc(C)c(C(=O)Nc3ccc(F)cc3)s2)c2cccnc21 | 999 s
CC(C)n1cnc(S(=O)(=O)N2CCC(C(=O)NCc3ccc(N(C)C)cc3)CC2)c1 | 589 s
CCc1cccc(NC(=O)N(C)CC2CCOC2)c1 (configuration not stated) | 739 s
CCN1CCCC1CNC(=O)Cn1c(=O)c2cccn2c2ccc(F)cc21 (configuration not stated) | 614 s
Cc1nn(C)c(C)c1S(=O)(=O)N1CCCC(OCc2noc(C3CCOCC3)n2)C1 (configuration not stated) | 716 s
O=C(CSc1n[nH]c(-c2ccccc2)n1)NC1CCCCC1 | 784 s
Cc1ccc(-n2nc3c(N4CCCC(C(=O)NCc5ccccc5Cl)C4)nnc(C)c3c2C)cc1 (configuration not stated) | 804 s
CCCN(C)c1nccn2c(=O)n(CC(=O)Nc3ccc(F)cc3F)nc12 | 673 s
CC(=O)c1ccc2c(c1)[C@@H]1C=CC[C@@H]1[C@H](c1cc3c(cc1Br)OCO3)N2 | 1140 s
CC(C)CN1C(=O)CCc2cc(NS(=O)(=O)c3cccs3)ccc21 | 819 s
Cc1ccc(Nc2c(-c3ccc(N(C)C)cc3)nc3cnccn23)c(Br)c1 | 990 s
CN(CC1COCCO1)c1ccc(C(=O)O)cc1NC(=O)c1ccccc1Cl (configuration not stated) | 771 s
CCN(CC)CCOC(=O)c1cc(Cl)c(N)cc1OC | 647 s
O=C(Nc1ccsn1)c1ccc(Cl)cc1Cl | 874 s
O=C(NCCc1c[nH]c2ccc(Cl)cc12)c1cccc(Cn2c(=O)c3cccn3c3cccnc32)c1 | 981 s
CCc1cccc(NC(=O)C2CCCN(c3nnc(C)c4c(C)n(-c5ccccc5)nc34)C2)c1 (configuration not stated) | 815 s
